According to patent US7205382B2, “Peptides, the production and use thereof for binding immunoglobulins” (Fresenius Medical Care Affina GmbH, priority 2000, dated 2007):
Bridge positions count the residues as written; N and C are the ends. Square brackets hold non-standard residues; d marks the D form. Ends that are not written are not given here. cellulose = not defined here; βAla = NCCC(=O)O

What was measured:
Type in all cases: binding
Parameters in all cases: key: No binding of immunoglobulin for the defined peptide variant, detection negative: 0; Binding of immunoglobulin for the defined peptide variant, detection positive: +
serum albumin = assay: Cellulose-immobilized 13-mer peptide variants incubated with serum albumin (negative control), anti-human IgG-AP detection; details: blocking buffer without addition, 3 h room temperature
Description: (§1) Peptides consisting of 13 amino acids were synthesized by solid phase synthesis (Houghten, 1985) on a cellulose matrix with (βA)(βA) as a spacer group.
(§2) The immobilized peptides were tested for their immunoglobulin binding capability by incubation with human IgG-Fc in a buffered solution and by incubation with human plasma.
(§3) Thus, the peptide variants immobilized on solid phases were washed with T-TBS buffer (136 mM NaCl, 1.6 mM KCl, 0.05% (v/v) Tween 20, 50 mM Tris-HCl, pH 8.0) and subsequently treated with blocking buffers (5% (w/v) saccharose, 4% (w/v) bovine serum albumin in T-TBS). Incubation of the immobilized peptides with IgG-Fc (1 μg/ml) in blocking buffer and human serum (diluted 1:10,000 in blocking buffer) was effected for 3 h at room temperature. For checking the specificity of the binding, buffered serum albumin solution (blocking buffer) without addition was included as a control. Thereafter, the peptide variants immobilized on the solid phases were washed three more times with T-TBS buffer.
(§4) After incubation with alkaline phosphatase-conjugated anti-human IgG antibody (1.2 μg/ml) in blocking buffer, detection of the immunoglobulin binding was effected by means of NBT (nitroblue tetrazolium chloride)/BCIP (5-bromo-4-chloro-3-indolyl phosphate toluidine salt) as a substrate (200 μl of parent solution (18.75 mg/ml NBT and 9.4 mg/ml BCIP in 67% (v/v) DMSO) in 10 ml developing buffer (100 mM Tris-HCl, 100 mM NaCl, 5 mM MgCl2, pH 9.5)).

[1] = system: immunoglobulins in human plasma; assay: Cellulose-immobilized 13-mer peptide variants incubated with human plasma, anti-human IgG-AP detection; details: human plasma as sample, diluted 1:10,000 in blocking buffer, 3 h room temperature
Description: as §1, §2, §3, §4

human IgG-Fc = assay: Cellulose-immobilized 13-mer peptide variants incubated with human IgG-Fc, anti-human IgG-AP detection; details: IgG-Fc 1 μg/ml in blocking buffer, 3 h room temperature
Description: as §1, §2, §3, §4

09V: cellulose-bound 13-mer variant DCAWHLGEVVWCT-(βA)(βA) (DCAWHLGEVVWCT-{βAla-βAla-cellulose}; disulfide 2-12 (inferred); reading uncertain; also: printed as DCAWHLGEVVWCT-(βA)(βA))
0: Result for incubation with serum albumin (immunoglobulin binding detection) (serum albumin) | Result for incubation with human plasma (immunoglobulin binding detection) [1] | Result for incubation with human IgG-Fc (immunoglobulin binding detection) (human IgG-Fc)

02H: cellulose-bound 13-mer variant DHAWHLGELVWCT-(βA)(βA) (DHAWHLGELVWCT[βAla][βAla]; not fully specified; printed as DHAWHLGELVWCT-(βA)(βA); also: cellulose-bound)
0: Result for incubation with serum albumin (immunoglobulin binding detection) (serum albumin) | Result for incubation with human plasma (immunoglobulin binding detection) [1] | Result for incubation with human IgG-Fc (immunoglobulin binding detection) (human IgG-Fc)

03F: cellulose-bound 13-mer variant DCFWHLGELVWCT-(βA)(βA) (DCFWHLGELVWCT-{βAla-βAla-cellulose}; disulfide 2-12 (inferred); reading uncertain; also: printed as DCFWHLGELVWCT-(βA)(βA))
0: Result for incubation with serum albumin (immunoglobulin binding detection) (serum albumin) | Result for incubation with human plasma (immunoglobulin binding detection) [1] | Result for incubation with human IgG-Fc (immunoglobulin binding detection) (human IgG-Fc)

09Y: cellulose-bound 13-mer variant DCAWHLGEYVWCT-(βA)(βA) (DCAWHLGEYVWCT-{βAla-βAla-cellulose}; disulfide 2-12 (inferred); reading uncertain; also: printed as DCAWHLGEYVWCT-(βA)(βA))
0: Result for incubation with serum albumin (immunoglobulin binding detection) (serum albumin) | Result for incubation with human plasma (immunoglobulin binding detection) [1] | Result for incubation with human IgG-Fc (immunoglobulin binding detection) (human IgG-Fc)

10M: cellulose-bound 13-mer variant DCAWHLGELMWCT-(βA)(βA) (DCAWHLGELMWCT-{βAla-βAla-cellulose}; disulfide 2-12 (inferred); reading uncertain; also: printed as DCAWHLGELMWCT-(βA)(βA))
0: Result for incubation with serum albumin (immunoglobulin binding detection) (serum albumin) | Result for incubation with human plasma (immunoglobulin binding detection) [1] | Result for incubation with human IgG-Fc (immunoglobulin binding detection) (human IgG-Fc)

08P: cellulose-bound 13-mer variant DCAWHLGPLVWCT-(βA)(βA) (DCAWHLGPLVWCT-{βAla-βAla-cellulose}; disulfide 2-12 (inferred); not fully specified (N-terminus); printed as DCAWHLGPLVWCT-(βA)(βA); reading uncertain)
0: Result for incubation with serum albumin (immunoglobulin binding detection) (serum albumin) | Result for incubation with human plasma (immunoglobulin binding detection) [1] | Result for incubation with human IgG-Fc (immunoglobulin binding detection) (human IgG-Fc)

05R: cellulose-bound 13-mer variant DCAWRLGELVWCT-(βA)(βA) (disulfide 2-12 (inferred); not fully specified (N-terminus, C-terminus); printed as DCAWRLGELVWCT-(βA)(βA); also: cellulose-bound)
0: Result for incubation with serum albumin (immunoglobulin binding detection) (serum albumin) | Result for incubation with human plasma (immunoglobulin binding detection) [1] | Result for incubation with human IgG-Fc (immunoglobulin binding detection) (human IgG-Fc)

02N: cellulose-bound 13-mer variant DNAWHLGELVWCT-(βA)(βA) (DNAWHLGELVWCT[βAla][βAla]; not fully specified; printed as DNAWHLGELVWCT-(βA)(βA); also: cellulose-bound)
0: Result for incubation with serum albumin (immunoglobulin binding detection) (serum albumin) | Result for incubation with human plasma (immunoglobulin binding detection) [1] | Result for incubation with human IgG-Fc (immunoglobulin binding detection) (human IgG-Fc)
